Results as given in patent publication US11369695B2, “Fat droplets in retina and optic nerve as a diagnostic marker for neurodegeneration and glaucoma in humans” (The Jackson Laboratory, priority 2016, dated 2022).
“Also recorded” adds a separate entry of the source.

Legend:
DBA/2J (D2) mice [1] = conditions: cited from earlier work
DBA/2J (D2) mice [2] = conditions: cited from earlier work; remark: listed apart in the source
DBA/2J (D2) mice [3] = assay: Intraocular pressure (IOP) in D2 mice; type: in vivo, mouse; conditions: NAM in drinking water (data not shown)
Text: Following the onset of iris disease around 6 months of age, intraocular pressure began to increase (FIG. 2). A typical “normal” IOP in a D2 mouse eye is ˜13 mmHg, which increases progressively from 6 to 12 months, to values that can typically exceed 20 mmHg. By 9 months of age, IOP was/had been elevated in the majority of the eyes of the D2 mice. IOP increases in D2 eyes were age-related and asynchronous, as well as being highly variable. In our colony, females tend to have higher/early onsets of elevated IOP (FIG. 2). […] Importantly, NAM was protective both prophylactically (starting at 6-month, early start; prior to IOP elevation in the vast majority of eyes in the colony), and as an intervention (starting at 9-month, late start; when the majority of eyes have had continuing IOP elevation). This signifies that NAM is able to both prevent neuronal injury from occurring as well as limiting neuronal injury to already insulted neurons (FIG. 6). This is important for human disease where treatment would only start once a disease has become symptomatic and thus detectable.

retinal ganglion cells = assay: Retinal ganglion cell analyses in NAM-treated D2 mice (data not shown); type: in vivo, mouse
Text: In addition, many ocular and neurodegenerative diseases occur in the elderly due to age-dependent molecular chances that increase susceptibility to damage. […] Furthermore, axonal degeneration and somal shrinkage may represent common components in some neurodegenerative diseases. NAM prevents these changes based on the data above at least in glaucoma treatment.

NAD levels = NAD levels in NAM-treated D2 mice; type: in vivo, mouse; conditions: NAM 550 mg/kg/d in drinking water
DBA/2J (D2) mice [4] = assay: Glaucomatous neurodegeneration in D2 mice at 12 months (optic nerve damage grading, soma loss, visual function, axonal transport); type: in vivo, mouse; conditions: for protection from developing glaucoma / optic nerve degeneration: NAM 550 mg/kg/d in drinking water, assessed at 12 months
Experimental: From left, DBA/2J control—D2 mice on standard drinking water; Nicotinamide)(NAM^Lo) early start—D2 mice on standard drinking water supplemented with 550 mg/kg/day NAM from 6 months of age (pre-disease); Nicotinamide)(NAM^Lo) late start—D2 mice on standard drinking water supplemented with 550 mg/kg/day NAM from 9 months of age (during disease); Nicotinamide (NAM^Hi) early start—D2 mice on standard drinking water supplemented with 2,000 mg/kg/day NAM from 6 months of age (pre-disease); Pyruvate—D2 mice on standard drinking water supplemented with 500 mg/kg/day pyruvate from 6 months of age (pre-elevated IOP); NAM^Lo+Pyruvate—D2 mice on standard drinking water supplemented with 550 mg/kg/day NAM+500 mg/kg/day pyruvate from 6 months of age (pre-disease); D2.Wld^S—D2 mice carrying the Wld^S transgene (altered NMNAT enzyme that enhances enzymatic activity) on standard drinking water; D2.Wld^S+Nicotinamide)(NAM^Lo)—D2 mice carrying the Wld^S transgene (altered NMNAT enzyme) on standard drinking water with 550 mg/kg/day NAM from 6 months of age (pre-elevated IOP).
To determine the fate of the retinal ganglion cells following prolonged period of elevated IOP in the D2 mice, we used PPD staining of the optic nerve to reveal the extent of retinal and/or optic nerve neurodegeneration, as PPD darkly stains the axoplasm of dead/dying axons.
For this purpose, we distinguished optic nerves as having one of three levels of damage: no glaucoma, where there is <5% axon loss in the optic nerve, these nerves are indistinguishable from young controls; moderate glaucoma, with […], and evidence of darkly stained axons; or severe glaucoma, with >50% axon loss, and typically accompanied by gliosis/gliotic scarring.
We conducted this in vivo experiment using a large cohort of D2 mice. In this experiment, optic nerves were classified into three damage levels: NO (no glaucoma), MOD (moderate damage), and SEV (severe damage).
Experimental D2 mice were divided into the following groups and were given:
W=water (standard mouse water)
NAM or NAM^Lo=550 mg/kg/d NAM in drinking water
Early=early start=pre-glaucoma=6-month of age (i.e. prophylactic)
Late=late start=during glaucoma=9-month of age (when mice already have high IOP, i.e. interventional, and more relative to human glaucoma)
Mice were then assessed at 12-month for optic nerve damage, soma loss, visual function, and axonal transport (data not shown).

[5] = test system: lipid droplets in DBA/2J retinas; assay: Lipid droplet formation in the inner retina by Oil Red O staining; type: in vivo, mouse; conditions: 12 month of age DBA/2J mice, versus untreated
Experimental: Lipid droplet formation in the inner retina was assessed by Oil Red O staining, which brightly stained neutral triglycerides and lipids. Following intraocular pressure elevation, lipid droplets were present within the inner retina of DBA/2J mice. At 6 months of age, the majority of retinas were negative for lipid droplets. By 9 months of age, small and dispersed lipid droplets were present in some eyes. By 12 months of age, lipid accumulation was present in the majority of eyes in retinas that had not yet developed glaucoma (no glaucoma). In eyes that had developed severe glaucoma, lipid droplets were present across the retina in the majority of eyes. GCL=ganglion cell layer (retinal ganglion cell bodies), IPL=inner plexiform layer (retinal ganglion cell dendrites and synapses). Haematoxylin (dark blue/purple) is a general marker of cell nuclei used as a counter-stain.
Lipid droplet formation was assessed in retinas from nicotinamide-treated DBA/2J mice. […] GCL=ganglion cell layer (retinal ganglion cell bodies), IPL=inner plexiform layer (retinal ganglion cell dendrites and synapses). Haematoxylin (dark blue/purple) is a general marker of cell nuclei used as a counter-stain.
Again, lipid/fat droplet formation in the inner retina was assessed by Oil Red O staining. […]
Lipid droplet formation was assessed in retinas from nicotinamide-treated DBA/2J mice.

mice = assay: PQQ tolerability in mice; type: in vivo, mouse
Experimental: With regard to PQQ, it is tolerated at least at 2,000 mg/kg/day in mice. The neuroprotective effect provided by PQQ is about 20-2,000 mg/kg/day, about 100-1,000 mg/kg/day, or about 500 mg/kg/day in mice.

**Q.** For CC(C)(C)NC[C@H](O)COc1nsnc1N1CCOCC1 [timolol], which “risk of developing neurodegeneration after topical administration” value (DBA/2J (D2) mice [1]) is on record?
**A.** reduces the risk of developing neurodegeneration

**Q.** And the “IOP after topical administration” value (DBA/2J (D2) mice [2])?
**A.** lowers IOP

**Q.** With NC(=O)c1cccnc1 [NAM, nicotinamide] as the compound, how does the “effect on IOP” value (DBA/2J (D2) mice [3]) read?
**A.** did not alter IOP

**Q.** And the early synapse loss (retinal ganglion cells; data not shown)?
**A.** protects early synapse loss

**Q.** And the “formation of dysfunctional mitochondria with abnormal cristae” value (retinal ganglion cells; data not shown)?
**A.** inhibits the formation of dysfunctional mitochondria with abnormal cristae

**Q.** What about the “retinal ganglion cell dysfunction and degeneration” value (retinal ganglion cells; data not shown) of the same compound?
**A.** robustly prevent retinal ganglion cell dysfunction and degeneration

**Q.** What about the “age-related gene expression / molecular changes in RGCs” value (retinal ganglion cells; gene expression, data not shown) of the same compound?
**A.** prevents age-related gene expression In RGCs; also recorded: prevents age-related molecular changes

**Q.** What about the “axonal degeneration and somal shrinkage” value (retinal ganglion cells; glaucoma) of the same compound?
**A.** prevents axonal degeneration and somal shrinkage

**Q.** What about the PARP activation (retinal ganglion cells; immunostaining, data not shown) of the same compound?
**A.** decreases PARP activation

**Q.** And the “molecular signs of glaucoma” value (retinal ganglion cells; immunostaining, data not shown)?
**A.** prevents molecular signs of glaucoma

**Q.** What about the “decline of NAD levels” value (NAD levels) of the same compound?
**A.** prevent the decline of NAD levels

**Q.** What about the “protection from developing glaucoma / optic nerve degeneration” value (DBA/2J (D2) mice [4]) of the same compound?
**A.** protect the D2 mice from all detectable signs of glaucoma through 12 months; also recorded: robustly protected D2 mice from developing glaucoma

**Q.** And the “protection from developing glaucoma / optic nerve degeneration” value (DBA/2J (D2) mice [4]; listed as nicotinamide)?
**A.** protects against optic nerve degeneration

**Q.** And the “glaucoma in the majority of the treated eyes, including PERG” value (DBA/2J (D2) mice [4]; NAM administration)?
**A.** completely prevents glaucoma

**Q.** What about the “protection from glaucoma, prophylactic” value (DBA/2J (D2) mice [4]; NAM early start at 6-month, prior to IOP elevation) of the same compound?
**A.** protects against glaucomatous neurodegeneration prophylactically; also recorded: protective

**Q.** What about the “protection from glaucoma, as an intervention” value (DBA/2J (D2) mice [4]; NAM late start at 9-month, continuing IOP elevation) of the same compound?
**A.** protective

**Q.** What about the “lipid droplet accumulation in retinas” value [5] of the same compound?
**A.** completely prevented

**Q.** Which tolerated dose (mice) does the source give for O=C(O)c1cc(C(=O)O)c2c(n1)C(=O)C(=O)c1cc(C(=O)O)[nH]c1-2 [PQQ, Pyrroloquinoline Quinone] here?
**A.** ≥ 2,000 mg/kg/day

**Q.** Which results are given for CC(C)OC(=O)CCC/C=C\C[C@@H]1[C@@H](CC[C@@H](O)CCc2ccccc2)[C@H](O)C[C@@H]1O [Latanoprost]?
**A.** risk of developing neurodegeneration after topical administration (DBA/2J (D2) mice [1]): reduces the risk of developing neurodegeneration; IOP after topical administration (DBA/2J (D2) mice [2]): lowers IOP

**Q.** What does the source list for CC12CC3CC(C)(C1)CC(N)(C3)C2 [memantine]?
**A.** risk of developing neurodegeneration after topical administration (DBA/2J (D2) mice [1]): reduces the risk of developing neurodegeneration; IOP after topical administration (DBA/2J (D2) mice [2]): lowers IOP
